From patent publication US6759408B2 (Wyeth, priority 1999, dated 2004) come the findings set out here.

Each structure is given as a SMILES string.

The first data set has as its system rat uterine decidualization. In words: Rat decidualization assay. Type of data set: in vivo. The note with it: read-out: CV-1 IC50 (mg/kg): Percentage inhibition at the dose specified. As to the method:
1. Rat Decidualization Assay
b. Animals (RACUC Protocol #5002)
The animals are treated once daily for seven days.
Uteri are removed and trimmed of fat.
Body weight: Mean total animal body weight (default-kg)
Decidual response: [(D-C)/C]×100%
In the case of `Cc1cc(C#N)sc1-c1ccc2c(c1)C1(CCCCC1)OC(=O)N2` [Compound 10, 5-(1,2-Dihydro-2-oxospiro[4H-3,1-benzoxazine-4,1-cyclohexan]-6-yl)-4-methyl-2-thiophenecarbonitrile], the inhibition in vivo at 10 mg/kg was determined as 50%.
The same measure, in the same setting: in the case of `N#Cc1ccc(-c2ccc3c(c2)C2(CCCCC2)OC(=O)N3)s1` [Compound 11, 5-(1,2-Dihydro-2-oxospiro[4H-3,1-benzoxazine-4,1-cyclohexan]-6-yl)-2-thiophenecarbonitrile] it was 50%.

Test system in another data set: not given
Assay: not given
Details: not given
Regarding `Cc1cc(Br)cc(-c2ccc3c(c2)C(C)(C)OC(=O)N3)c1` [Example 56, 6-(3-Bromo-5-methyl-phenyl)-4,4-dimethyl-1,4-dihydrobenzo-[d][1,3]oxazin-2-one], the melting point (usually the temperature of the solid-liquid transition) is 231 to 233 °C.
The same measure, in the same setting: as for `CC1(C)OC(=O)Nc2ccc(-c3cccc(C#N)c3)cc21` [Example 12, 3-(4,4-Dimethyl-2-oxo-1,4-dihydro-2H-benzo[d][1,3]oxazin-6-yl)-benzonitrile], the figure is 236 to 237 °C; as for `COc1cccc(-c2ccc3c(c2)C(C)(C(F)(F)F)OC(=O)N3)c1` (centres unmarked) [Example 48, 6-(3-Methoxyphenyl)-4-methyl-4-trifluoromethyl-1,4-dihydro-benzo[d][1,3]oxazin-2-one], 178 to 179 °C; as for `CC1(C)OC(=O)Nc2ccc(-c3coc(C#N)c3)cc21` [Example 23, 4-(4,4-Dimethyl-2-oxo-1,4-dihydro-2H-benzo[d][1,3]oxazin-6-yl)-furan-2-carbonitrile], 255 to 256 °C.
The same measure, in the same setting: in the case of `CC1(C)OC(=O)Nc2ccc(-c3ccc([N+](=O)[O-])[nH]3)cc21` [Example 96, 4,4-Dimethyl-6-(5-nitro-1H-pyrrol-2-yl)-1,4-dihydrobenzo[d][1,3]oxazin-2-one] it was 265 °C (dec.).
`CC1(C)OC(=O)Nc2ccc(-c3cncc(C#N)c3)cc21` [Example 16, 5-(4,4-Dimethyl-2-oxo-1,4-dihydro-2H-benzo[d][1,3]oxazin-6-yl)-nicotinonitrile] returned a melting point of 290 to 291 °C.
As to `Cc1cc(C#N)sc1-c1ccc2c(c1)C1(CCCCC1)OC(=O)N2` [Compound 10, 5-(1,2-Dihydro-2-oxospiro[4H-3,1-benzoxazine-4,1-cyclohexan]-6-yl)-4-methyl-2-thiophenecarbonitrile], the melting point lay in the range of 200 to 203 °C.
Consider `CC1(C)OC(=O)Nc2ccc(-c3cc(C#N)cc(C#N)c3)cc21` [Example 80, 5-(4,4-Dimethyl-2-oxo-1,4-dihydro-2H-benzo[d][1,3]oxazin-6-yl)-isophthalonitrile], for which the melting point is 288 to 289 °C.
The same measure, in the same setting: as for `Cc1cc(C#N)sc1-c1ccc2c(c1)C(C)(C)OC(=O)N2` [Compound 18, 5-(4,4-Dimethyl-2-oxo-1,4-dihydro-2H-benzo[d][1,3]oxazin-6-yl)-4-methyl-thiophene-2-carbonitrile], the figure is 195 to 200 °C; as for `C#CC1(C)OC(=O)Nc2ccc(-c3cccc(Cl)c3)cc21` (centres unmarked) [Example 38, 6-(3-Chlorophenyl)-4-ethynyl-4-methyl-1,4-dihydro-benzo[d][1,3]oxazin-2-one], 185 to 186 °C; as for `Cc1cc(C#N)cc(-c2ccc3c(c2)C(C)(C)OC(=O)N3)c1` [Example 58, 3-(4,4-Dimethyl-2-oxo-1,4-dihydro-2H-benzo[d][1,3]oxazin-6-yl)-5-methyl-benzonitrile], 256 to 258 °C.
In turn, `CC1(C)OC(=O)Nc2ccc(-c3coc(C=NO)c3)cc21` [Example 145, 4-(1,4-Dihydro-4,4-dimethyl-2-oxo-2H-3,1-benzoxazin-6-yl)-2-furancarboxaldehyde oxime] gave a melting point of 236 to 238 °C.
Take `CC1(C)OC(=O)Nc2ccc(-c3cccc(C#CC#N)c3)cc21` [Example 75, 3-[3-(4,4-Dimethyl-2-oxo-1,4-dihydro-2H-benzo[d][1,3]oxazin-6-yl)-phenyl]-propynenitrile]: the melting point fell in the range of 212 to 213 °C.
On to `CCC1(CC)OC(=O)Nc2ccc(-c3cccc([N+](=O)[O-])c3)cc21` [Example 24, 4,4-Diethyl-6-(3-nitrophenyl)-1,4-dihydrobenzo[d][1,3]oxazin-2-one], for which the melting point fell in the range of 193 to 194 °C.
For the compound `CC1(C)OC(=O)Nc2ccc(-c3csc(C#N)c3)cc21` [Compound 17, 4-(4,4-Dimethyl-2-oxo-1,4-dihydro-2H-benzo[d][1,3]oxazin-6-yl)-thiophene-2-carbonitrile], the melting point is 230 to 231 °C (dec.).
On the same count and under the same terms, as for `O=C1Nc2ccc(-c3cccc(Cl)c3)cc2C(C2CC2)(C2CC2)O1` [Example 43, 6-(3-Chloro-phenyl)-4,4-dicyclopropyl-1,4-dihydro-benzo[d][1,3]oxazin-2-one], the figure is 198 to 200 °C.
Turning to `CC1(C)OC(=O)Nc2ccc(-c3cccc(Cl)c3)cc21` [Example 5, 6-(3-Chlorophenyl)-4,4-dimethyl-1,4-dihydrobenzo[d][1,3]oxazin-2-one], the melting point lay within 158 to 159 °C.
`CC(C)(C)OC(=O)n1cccc1-c1ccc2c(c1)C(C)(C)OC(=O)N2` [Example 94, 2-(4,4-Dimethyl-2-oxo-1,4dihydro-2H-benzo[d][1,3]oxazin-6-yl)-pyrrole-1-carboxylic acid tert-butyl ester]: the melting point came to 176 °C.
`O=C1Nc2ccc(-c3cc(F)cc(Br)c3)cc2C(C2CC2)(C2CC2)O1` [Example 54, 6-(3-Bromo-5-fluoro-phenyl)-4,4-dicyclopropyl-1,4-dihydrobenzo-[d][1,3]oxazin-2-one] returned a melting point of 228 to 229 °C.
On the same count and under the same terms, in the case of `CC#CC1(C)OC(=O)Nc2ccc(-c3cccc(Cl)c3)cc21` (centres unmarked) [Example 37, 6-(3-Chlorophenyl)-4-methyl-4-propyn-1-yl-1,4-dihydro-benzo[d][1,3]oxazin-2-one] it was 184 to 185 °C; in that of `CCC1(CC)OC(=O)Nc2ccc(-c3cccc(Cl)c3)cc21` [Example 25, 6-(3-Chlorophenyl)-4,4-diethyl-1,4-dihydrobenzo[d][1,3]oxazin-2-one], 150 to 151 °C; in that of `CC1(C)OC(=O)Nc2ccc(-c3cccc(S(N)(=O)=O)c3)cc21` [Example 140, 3-(4,4-Dimethyl-2-oxo-1,4-dihydro-2H-benzo[d][1,3]-oxazin-6-yl)benzenesulfonamide], 242 to 244 °C (dec.).
Still for that read-out and setting: as for `CC1(C)OC(=O)Nc2ccc(-c3cc(F)cc(-c4ccsc4)c3)cc21` [Example 93, 6-(3-Fluoro-5-thiophen-3-yl-phenyl)-4,4-dimethyl-1,4-dihydro-benzo[d][1,3]oxazin-2-one], the figure is 200 to 203 °C; as for `CC1(C)OC(=O)Nc2ccc(-c3sccc3C#N)cc21` [Example 91, 2-(4,4-Dimethyl-2-oxo-1,4-dihydro-2H-benzo[d][1,3]oxazin-6-yl)-thiophene-3-carbonitrile], 200 to 202 °C.
